# Data from patent US7176199B2, “Aryl-substituted alicyclic compound and medical composition comprising the same” (Dainippon Pharmaceutical Co., Ltd., priority 2001, dated 2007).
# Tests used:
# [1] = molecular target: αvβ3 integrin (Homo sapiens, UniProt P05106+P06756); test: Assay for the inhibition of αvβ3 integrin binding (vitronectin as ligand); parameters: purchased Chemicon International, Inc., USA; settings: inhibition of specific binding of biotinylated human vitronectin to immobilized αvβ3 integrin
# αvβ3 integrin, sequence (P06756 31-889 limits assumed): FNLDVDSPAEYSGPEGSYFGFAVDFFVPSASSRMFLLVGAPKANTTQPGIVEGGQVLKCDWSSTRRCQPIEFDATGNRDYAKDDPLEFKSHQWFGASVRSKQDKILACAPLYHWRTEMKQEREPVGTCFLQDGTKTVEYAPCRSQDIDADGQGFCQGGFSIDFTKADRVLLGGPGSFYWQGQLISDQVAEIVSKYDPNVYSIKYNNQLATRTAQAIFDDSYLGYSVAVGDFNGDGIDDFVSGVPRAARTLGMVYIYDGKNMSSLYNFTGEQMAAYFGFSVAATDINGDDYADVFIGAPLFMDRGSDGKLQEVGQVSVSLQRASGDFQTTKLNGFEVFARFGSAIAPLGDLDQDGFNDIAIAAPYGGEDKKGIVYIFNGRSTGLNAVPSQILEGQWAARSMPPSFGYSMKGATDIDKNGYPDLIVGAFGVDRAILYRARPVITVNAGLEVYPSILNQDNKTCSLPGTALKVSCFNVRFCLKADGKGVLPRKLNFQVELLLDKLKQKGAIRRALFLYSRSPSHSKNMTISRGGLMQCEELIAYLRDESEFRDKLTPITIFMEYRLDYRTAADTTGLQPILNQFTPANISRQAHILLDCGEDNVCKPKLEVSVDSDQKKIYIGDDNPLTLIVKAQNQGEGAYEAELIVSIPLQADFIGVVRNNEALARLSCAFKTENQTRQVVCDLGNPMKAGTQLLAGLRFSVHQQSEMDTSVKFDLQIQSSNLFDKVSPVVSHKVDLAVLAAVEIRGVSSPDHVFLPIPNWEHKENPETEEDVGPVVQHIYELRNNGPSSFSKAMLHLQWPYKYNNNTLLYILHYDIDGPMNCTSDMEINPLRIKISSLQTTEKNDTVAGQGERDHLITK
# αvβ3 integrin, sequence (P06756 891-1048 partner limits assumed): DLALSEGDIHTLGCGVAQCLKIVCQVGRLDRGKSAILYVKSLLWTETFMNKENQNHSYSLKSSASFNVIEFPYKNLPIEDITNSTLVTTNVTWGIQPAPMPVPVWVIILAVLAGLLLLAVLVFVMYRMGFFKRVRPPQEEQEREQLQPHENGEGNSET
# αvβ3 integrin, sequence (P05106 27-788): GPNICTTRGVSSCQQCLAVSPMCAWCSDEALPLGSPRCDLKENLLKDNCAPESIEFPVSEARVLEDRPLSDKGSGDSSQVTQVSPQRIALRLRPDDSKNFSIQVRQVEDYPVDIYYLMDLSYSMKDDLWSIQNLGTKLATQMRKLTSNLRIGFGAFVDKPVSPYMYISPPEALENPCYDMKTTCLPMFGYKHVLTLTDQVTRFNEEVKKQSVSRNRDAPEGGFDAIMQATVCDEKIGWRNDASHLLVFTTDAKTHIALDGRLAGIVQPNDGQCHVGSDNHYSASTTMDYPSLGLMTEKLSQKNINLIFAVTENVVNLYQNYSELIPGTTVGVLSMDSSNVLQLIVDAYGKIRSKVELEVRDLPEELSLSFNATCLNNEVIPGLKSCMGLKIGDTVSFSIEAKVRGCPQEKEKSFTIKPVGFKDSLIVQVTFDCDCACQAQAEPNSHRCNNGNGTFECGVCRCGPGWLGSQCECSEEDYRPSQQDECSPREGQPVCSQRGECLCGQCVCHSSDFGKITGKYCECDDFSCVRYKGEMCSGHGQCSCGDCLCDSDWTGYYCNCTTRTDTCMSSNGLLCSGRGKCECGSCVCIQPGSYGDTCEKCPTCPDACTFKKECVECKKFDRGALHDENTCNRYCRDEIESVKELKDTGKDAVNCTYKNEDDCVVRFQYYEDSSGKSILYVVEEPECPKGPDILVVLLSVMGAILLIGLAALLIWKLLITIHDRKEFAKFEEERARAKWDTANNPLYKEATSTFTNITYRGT
# Description: Experiment 1: Assay for the Inhibition of αvβ3 integrin binding
# This experiment was carried out based on the method described in […].
# Purified human αvβ3 integrin (Chemicon International, Inc., USA) was adjusted to a concentration of 1 μg/ml with TBS^++ [20 mM Tris-HCl (pH 7.4), 150 mM NaCl, 1 mM CaCl2, 1 mM MgCl2], and the diluted solution was added to plates (Labsystems, Finland) at 50 μl/well. The plate was left at 4° C. overnight for immobilization of the αvβ3 integrin. All subsequent steps were done at 25° C., and the procedure for each well was described hereafter.
# The solution was discarded, and then 200 μl of TBS^++ containing 1% BSA (Wako Pure Chemical Industries, Ltd., Japan) was added to the well and left for one hour for blocking. The well was washed with a wash solution (TBS^++ containing 0.01% Tween 20) 4 times, and 50 μl of a reaction solution (TBS^++ containing 0.1% BSA and 0.01% Tween 20) was added to the well. Subsequently, 25 μl of a test compound solution adjusted to each concentration with the reaction solution was added, and then mixed with 25 μl of biotinylated (Amersham Pharmacia Biotech, UK) human vitronectin (Gibco BRL, USA) adjusted to 0.4 μg/ml with the reaction solution. The mixture was reacted for 2 hours. After washing 4 times with the wash solution, 100 μl of peroxidase-labeled streptoavidin (Amersham Pharmacia Biotech, UK) diluted 1:500 with the reaction solution was added to the well. Following 30 minutes reaction, the well was washed 4 times with the wash solution, and 100 μl of a TMB substrate solution (Bio-Rad Laboratories, USA) was added to the well. Color was developed for 20 minutes and the reaction was stopped by adding 100 μl of 0.5 M sulfuric acid.
# (§1) The absorbance at 450 nm was measured with a plate reader (Molecular Devices, USA) to obtain a total binding. To obtain a nonspecific binding, EDTA adjusted to 20 mM with the reaction solution was added instead of the test compound solution. A specific binding was calculated by subtracting the nonspecific binding from the total binding.
# [2] = molecular target: T1, αIIbβ3 integrin (Homo sapiens, UniProt P05106+P08514); test: Assay for the inhibition of αIIbβ3 integrin binding (fibrinogen as ligand, integrin captured from platelet lysate); settings: inhibition of specific binding of biotinylated fibrinogen to αIIbβ3 integrin from human platelet lysate
# T1 construct: from tissue; host or cells: human platelets (Triton X-100 lysate)
# T1 sequence (P08514 32-887 limits assumed): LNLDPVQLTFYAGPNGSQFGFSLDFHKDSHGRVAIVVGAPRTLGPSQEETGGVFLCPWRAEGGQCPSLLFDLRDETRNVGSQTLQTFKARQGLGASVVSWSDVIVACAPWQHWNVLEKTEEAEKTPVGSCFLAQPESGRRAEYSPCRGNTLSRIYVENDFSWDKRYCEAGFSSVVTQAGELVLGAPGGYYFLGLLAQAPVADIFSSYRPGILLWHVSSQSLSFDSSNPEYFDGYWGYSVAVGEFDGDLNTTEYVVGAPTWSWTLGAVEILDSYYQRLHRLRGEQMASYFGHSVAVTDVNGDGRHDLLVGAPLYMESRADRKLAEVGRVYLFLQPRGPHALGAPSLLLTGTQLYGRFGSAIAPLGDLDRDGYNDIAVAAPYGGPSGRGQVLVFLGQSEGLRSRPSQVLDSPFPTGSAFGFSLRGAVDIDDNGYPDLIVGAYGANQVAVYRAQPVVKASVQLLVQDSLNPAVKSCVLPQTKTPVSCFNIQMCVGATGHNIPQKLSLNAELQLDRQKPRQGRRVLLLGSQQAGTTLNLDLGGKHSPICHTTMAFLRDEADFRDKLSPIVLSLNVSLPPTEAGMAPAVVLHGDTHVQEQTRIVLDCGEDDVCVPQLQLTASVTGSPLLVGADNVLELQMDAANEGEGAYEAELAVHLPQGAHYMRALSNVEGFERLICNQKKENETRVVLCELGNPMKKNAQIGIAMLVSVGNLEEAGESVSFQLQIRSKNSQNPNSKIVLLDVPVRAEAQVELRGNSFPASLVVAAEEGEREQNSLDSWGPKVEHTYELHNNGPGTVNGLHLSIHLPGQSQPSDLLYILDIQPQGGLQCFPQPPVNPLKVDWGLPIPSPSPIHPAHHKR
# T1 sequence (P08514 891-1039 partner limits assumed): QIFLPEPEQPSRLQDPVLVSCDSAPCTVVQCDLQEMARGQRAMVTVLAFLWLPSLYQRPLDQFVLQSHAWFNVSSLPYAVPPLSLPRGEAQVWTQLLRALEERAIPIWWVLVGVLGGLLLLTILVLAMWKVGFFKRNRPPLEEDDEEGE
# T1 sequence (P05106 27-788): as the sequence (P05106 27-788) above
# Description: Experiment 2: Assay for the Inhibition of αIIbβ3 Integrin Binding
# This experiment was carried out based on the method described in Thromb. Haemostasis, 75, 339 (1996), Blood, 93, 2559 (1999), using fibrinogen as a ligand. According to the method described in the above literatures, assay for the inhibition of αIIbβ3 integrin binding can be achieved by capturing αIIbβ3 integrin from platelet lysate with the use of an activated antibody against αIIbβ3 integrin.
# Human platelets were isolated in a conventional manner. At 25° C., the isolated platelets were adjusted to a concentration of 1.25×10^9/ml with TBS+[50 mM Tris-HCl (pH 7.4), 150 mM NaCl, 2 mM CaCl2], and then ⅛ volume of TBS^+ containing 2 mM leupepsin and 10 mM PMSF was added and stirred gently. Nest, 1/9 volume of TBS+ containing 10% Triton X-100 was added and stirred gently. After standing on ice for 30 minutes, a platelet lysate was prepared from the mixture by discarding the insoluble fraction with centrifugation (10,000 g, 15 minutes).
# Anti-mouse IgG goat antibody (Jackson Immunoresearch Laboratories, Inc., USA) was adjusted to a concentration of 5 μg/ml with sodium carbonate buffer (pH 9.6) and added to plates at 50 μl/well. The plate was left at 4° C. overnight for immobilization of the antibody. All subsequent steps were done at 25° C., and the procedure for each well was described hereafter.
# The well was washed once with TBS^+, and then 200 μl of TBS^+ containing 5% BSA was added to the well and left for one hour for blocking. The well was washed with a reaction solution (TBS^+ containing 0.1% BSA and 0.05% Triton X-100) 4 times, and then 50 μl of anti-human αIIbβ3 integrin activated monoclonal antibody (TAKARA SHUZO CO., LTD, Japan, PT25-2 strain) adjusted to 5 μg/ml with the reaction solution was added to the well. After one hour reaction, the well was washed 4 times with the reaction solution, and 50 μl of the platelet lysate diluted 1:2 with the reaction solution was added to the well. Following 2 hours reaction, the well was washed 4 times with the reaction solution, and 50 μl of the reaction solution was added to the well. Subsequently, 25 μl of a test compound solution adjusted to each concentration with the reaction solution was added, and then mixed with 25 μl of biotinylated fibrinogen (Calbiochem, Germany) adjusted to 2 μg/ml with the reaction solution. The mixture was reacted for one hour. After washing 4 times with the reaction solution, 100 μl of alkaline phosphatase-labeled streptoavidin (Gibco BRL, USA) diluted 1:500 with the reaction solution was added to the well. Following 30 minutes reaction, the well was washed 4 times with the wash solution. Next, 50 μl of the NaDPH solution (Invitrogen, former company name: Gibco BRL, USA) was added and reacted for 20 minutes, and then 50 μl of an amplification solution containing diaphorase and alcohol dehydrogenase (Invitrogen, former company name: Gibco BRL, USA) was added. Color was developed for 20 minutes and the reaction was stopped by adding 50 μl of 0.5 M sulfuric acid.
# as §1, with “495” for “450”, “reader” for “reader (Molecular Devices, USA)”
SMILES,IC50 [1],IC50 [2]
"CCOC(=O)N[C@@H](CNC(=O)C1CCN(c2cccc(NC3=NCCCN3)c2)CC1)C(=O)O [Ex. 86, (2S)-2-ethoxycarbonylamino-3-[[1-[3-(1,4,5,6-tetrahydropyrimidin-2-yl)aminophenyl]piperidin-4-yl]carbonylamino]propanoic acid]",0.094 nM,380 nM
"CCCCOC(=O)N[C@@H](CNC(=O)C1CCN(c2cccc(NC3=NCCCN3)c2)CC1)C(=O)O [Ex. 87, (2S)-2-butoxycarbonylamino-3-[[1-[3-(1,4,5,6-tetrahydropyrimidin-2-yl)aminophenyl]piperidin-4-yl]carbonylamino]propanoic acid]",0.1 nM,110 nM
"CCCCCCOC(=O)N[C@@H](CNC(=O)C1CCN(c2cccc(NC3=NCCCN3)c2)CC1)C(=O)O [Ex. 88, (2S)-2-hexyloxycarbonylamino-3-[[1-[3-(1,4,5,6-tetrahydropyrimidin-2-yl)aminophenyl]piperidin-4-yl]carbonylamino]propanoic acid]",0.051 nM,26 nM
"CCCCCCCCOC(=O)N[C@@H](CNC(=O)C1CCN(c2cccc(NC3=NCCCN3)c2)CC1)C(=O)O [Ex. 89, (2S)-2-octyloxycarbonylamino-3-[[1-[3-(1,4,5,6-tetrahydropyrimidin-2-yl)aminophenyl]piperidin-4-yl]carbonylamino]propanoic acid]",0.1 nM,96 nM
"CCCCCCCCCCOC(=O)N[C@@H](CNC(=O)C1CCN(c2cccc(NC3=NCCCN3)c2)CC1)C(=O)O [Ex. 90, (2S)-2-decyloxycarbonylamino-3-[[1-[3-(1,4,5,6-tetrahydropyrimidin-2-yl)aminophenyl]piperidin-4-yl]carbonylamino]propanoic acid]",0.23 nM,260 nM
"CC(C)COC(=O)N[C@@H](CNC(=O)C1CCN(c2cccc(NC3=NCCCN3)c2)CC1)C(=O)O [Ex. 92, (2S)-2-isobutoxycarbonylamino-3-[[1-[3-(1,4,5,6-tetrahydropyrimidin-2-yl)aminophenyl]piperidin-4-yl]carbonylamino]propanoic acid]",0.066 nM,72 nM
"CC(C)(C)COC(=O)N[C@@H](CNC(=O)C1CCN(c2cccc(NC3=NCCCN3)c2)CC1)C(=O)O [Ex. 93, (2S)-2-neopentyloxycarbonylamino-3-[[1-[3-(1,4,5,6-tetrahydropyrimidin-2-yl)aminophenyl]piperidin-4-yl]carbonylamino]propanoic acid]",0.2 nM,150 nM
"COCCOC(=O)N[C@@H](CNC(=O)C1CCN(c2cccc(NC3=NCCCN3)c2)CC1)C(=O)O [Ex. 94, (2S)-2-(2-methoxyethoxycarbonylamino)-3-[[1-[3-(1,4,5,6-tetrahydropyrimidin-2-yl)aminophenyl]piperidin-4-yl]carbonylamino]-propanoic acid]",0.21 nM,60 nM
"C=CCOC(=O)N[C@@H](CNC(=O)C1CCN(c2cccc(NC3=NCCCN3)c2)CC1)C(=O)O [Ex. 96, (2S)-2-allyloxycarbonylamino-3-[[1-[3-(1,4,5,6-tetrahydropyrimidin-2-yl)aminophenyl]piperidin-4-yl]carbonylamino] propanoic acid]",0.08 nM,60 nM
"CCCCCCNC(=O)N[C@@H](CNC(=O)C1CCN(c2cccc(NC3=NCCCN3)c2)CC1)C(=O)O [Ex. 117, (2S)-2-hexylaminocarbonylamino-3-[[1-[3-(1,4,5,6-tetrahydropyrimidin-2-yl)aminophenyl]piperidin-4-yl]carbonylamino]propanoic acid]",0.35 nM,88 nM
O=C(N[C@@H](CCC(=O)N1CCN(c2cccc(NC3=NCCN3)c2)CC1)C(=O)O)OCc1ccccc1 [Ex. 122],0.16 nM,720 nM
O=C(N[C@@H](CCC(=O)N1CCN(c2cccc(NC3=NCCCCN3)c2)CC1)C(=O)O)OCc1ccccc1 [Ex. 123],0.056 nM,1600 nM
